Data as given in patent US10233144B2, “Crystalline form of AHU377, preparation method and use thereof” (CRYSTAL PHARMATECH CO., LTD., priority 2015, dated 2019).

Test: Hygroscopicity assessment by dynamic vapor sorption (DVS)
Assay type: physicochemical
Details: 25° C.; for weight gain under 80% RH: DVS, 10 mg sample
Method: Dynamic Vapor Sorption (DVS) was measured via a SMS (Surface Measurement Systems) DVS Intrinsic. Typical Parameters for DVS test are listed below. Temperature: 25° C. Gas and flow rate: N2, 200 mL/min dm/dt: 0.002%/min RH range: 0% RH to 95% RH 10 mg of crystalline Form I of the present disclosure was tested using dynamic vapor sorption (DVS). 4. The DVS isotherm plot of crystalline Form I is depicted in FIG. 4. About hygroscopicity characterization description and definition of hygroscopicity (Chinese Pharmacopoeia 2010 edition appendix XIX J Drug hygroscopic test guidelines, test at 25° C.±1° C., 80% Relative Humidity) • deliquescent: sufficient water is absorbed to form a liquid; • very hygroscopic: increase in mass is equal to or greater than 15 percent; • hygroscopic: increase in mass is less than 15 percent and equal to or greater than 2 percent; • slightly hygroscopic: increase in mass is less than 2 percent and equal to or greater than 0.2 percent. • no or almost no hygroscopic: increase in mass is less than 0.2 percent

For `CCOC(=O)[C@H](C)C[C@@H](Cc1ccc(-c2ccccc2)cc1)NC(=O)CCC(=O)O` [Crystalline Form I of AHU377, (2R,4S)-5-(Biphenyl-4-yl)-4-[(3-carboxypropionyl)amino]-2-methylpentanoic acid ethyl ester], the “hygroscopicity (class according to hygroscopic test guidelines)” value (Chinese Pharmacopoeia 2010 appendix XIX J, 80% Relative Humidity) was “slightly hygroscopic (increase in mass is less than 2 percent and equal to or greater than 0.2 percent)”, the “weight gain under 80% RH” value was 0.35% and the “weight gain under 80% RH” value (listed as crystalline Form I) was 0.35%.
